# Literature values in patent EP0097942A1, “Antiallergic pyrazine-bis(2-oxoglycine) compounds” (THE DOW CHEMICAL COMPANY, priority 1982, dated 1984).
# Read-outs that look alike come from different tables or passages of the source.
# Tested on: PCA reactions
# Conditions: general statement on reference drug
structure (smiles),measurement,setting,value
O=C(O)c1cc(=O)c2c(OCC(O)COc3cccc4oc(C(=O)O)cc(=O)c34)cccc2o1 [Disodium cromoglycate],activity in PCA test,administered i.p.,active
same,activity in PCA test,administered orally,not orally
